Assay results: patent publication US10912741B2, “Prevention of liver cancer with safranal-based formulations” (United Arab Emirates University, priority 2019, dated 2021)

Columns and labels:
[1] = test system: caspase-cleaved fragment of cytokeratin18 (M30 CytoDeath); assay: M30 CytoDeath staining of liver sections (early apoptosis); assay type: in vivo, albino Wistar rats
Method: The experimental hepatocarcinogenesis model was developed according to a protocol by Espandiaria et al. that was adapted for our purposes. To initiate and promote hepatocarcinogenesis, diethylnitrosamine (DEN) and 2-acetylaminofluorene (2-AAF) were used, respectively. For hepatocarcinogenesis initiation in this model, a single DEN dose (200 mg/kg b.wt.) dissolved in saline was injected intraperitoneally. After initiation, all rats underwent one period of 5-days fasting, as mitotic proliferative stimuli. To promote hepatocarcinogenesis, 2-acetylaminofluorene (2-AAF) was introduced in the form of six daily intragastric doses (30 mg/kg in 1% Tween 80); two weeks after DEN treatment.
Safranal at doses of 25 mg/kg by weight (b.wt.) and 50 mg/kg b.wt, was administrated orally to rats. These doses have been reported to suppress chemically-induced oxidative damage in rats. […]
TUNEL assay was performed for the purpose of assessing apoptosis. […] DNA fragmentation, a key indicator of apoptosis, is detected using this kit. […]
For immunohistochemical staining, mounted sections were immersed in sodium citrate buffer (0.1 M, pH 6) and placed in a water bath for 15 minutes to unmask antigen epitopes. […] Ten fields were randomly selected to quantify positive cells, in individual samples (400×). […]

myeloperoxidase (MPO) = assay: Myeloperoxidase activity in liver homogenate, DEN/2-AAF hepatocarcinogenesis model; assay type: in vivo, albino Wistar rats; details: mean±SEM, 8 rats
Method: The experimental hepatocarcinogenesis model was developed according to a protocol by […] et al. that was adapted for our purposes. To initiate and promote hepatocarcinogenesis, diethylnitrosamine (DEN) and 2-acetylaminofluorene (2-AAF) were used, respectively. For hepatocarcinogenesis initiation in this model, a single DEN dose (200 mg/kg b.wt.) dissolved in saline was injected intraperitoneally. After initiation, all rats underwent one period of 5-days fasting, as mitotic proliferative stimuli. To promote hepatocarcinogenesis, 2-acetylaminofluorene (2-AAF) was introduced in the form of six daily intragastric doses (30 mg/kg in 1% Tween 80); two weeks after DEN treatment. […] at doses of 25 mg/kg by weight (b.wt.) and 50 mg/kg b.wt, was administrated orally to rats. These doses have been reported to suppress chemically-induced oxidative damage in rats. A total of 40 adult male albino Wistar rats were randomly divided into […] (n=8) and were subjected to different treatments. Group 1 (control) was orally administered distilled water (5 ml/kg b.wt.) throughout the experimental duration and were injected with a single dose of saline. Group 2 ([…] only) was subjected to a safranal dose (50 mg/kg b.wt.) through oral administration for the duration of the experimental period. Hepatocarcinogenesis was induced by DEN and promoted by 2-AAF, as reported previously, in group 3 (HCC). […] Glutathione (GSH) content was determined by analyzing liver homogenates, according to the method of Van Dooran et al. The assay depends on measuring yellow 5-thiol-2-nitrobenzoate absorbance at 412 nm. Glutathione-S-transferase (GST) activity was determined using the method of Habig et al. GST catalyzes the conjugation of GSH thiol group with 1-Chloro-2,4-dinitrobenzene (CDNB), which can be measured by determining the increase in absorbance at 340 nm. […] CAT decomposes hydrogen peroxide (H2O2) to oxygen and water; therefore, the activity of CAT was evaluated according to by the exponential decomposition of H2O2 at 240 nm. […] UV-160-Shimadzu recording spectrophotometer was used to record absorbances. […]

For `CC1=C(C=O)C(C)(C)CC=C1` [Safranal, 2,6,6-trimethylcyclohexa-1,3-diene-1-carbaldehyde], the “number of M30 CytoDeath-positive cells” value ([1]; low/high doses of safranal in animals exposed to DEN, compared to group 3) was “significant increase in the number of both TUNEL- and M30 CytoDeath-positive cells”, the “number of M30 CytoDeath-positive cells” value ([1]; safranal only (group 2), compared to control group) was “did not exhibit a notable change” and the MPO (myeloperoxidase (MPO); HCC (DEN/2-AAF) rats + safranal high dose 50 mg/kg b.wt. oral, 12 weeks) was 31.54 ± 2.4 milliunit/mg protein. It also gave an MPO (myeloperoxidase (MPO); HCC (DEN/2-AAF) rats + safranal low dose 25 mg/kg b.wt. oral, 12 weeks) of 27.47 ± 1.77 milliunit/mg protein and an MPO (myeloperoxidase (MPO); safranal alone 50 mg/kg b.wt. oral, no DEN (group 2)) of 32.61 ± 1.61 milliunit/mg protein.
